Test results taken from ChEMBL document CHEMBL1165848, “Discovery of new cholesteryl ester transfer protein inhibitors via ligand-based pharmacophore modeling and QSAR analysis followed by synthetic exploration” (Eur J Med Chem, 2010).

biological target: T1, Cholesteryl ester transfer protein (Oryctolagus cuniculus) (UniProt P22687); experiment: Inhibition of CETP in rabbit serum at 10 uM after 1 hr by fluorescent cholesteryl esters transfer assay; conditions: not given
T1 sequence (whole entry): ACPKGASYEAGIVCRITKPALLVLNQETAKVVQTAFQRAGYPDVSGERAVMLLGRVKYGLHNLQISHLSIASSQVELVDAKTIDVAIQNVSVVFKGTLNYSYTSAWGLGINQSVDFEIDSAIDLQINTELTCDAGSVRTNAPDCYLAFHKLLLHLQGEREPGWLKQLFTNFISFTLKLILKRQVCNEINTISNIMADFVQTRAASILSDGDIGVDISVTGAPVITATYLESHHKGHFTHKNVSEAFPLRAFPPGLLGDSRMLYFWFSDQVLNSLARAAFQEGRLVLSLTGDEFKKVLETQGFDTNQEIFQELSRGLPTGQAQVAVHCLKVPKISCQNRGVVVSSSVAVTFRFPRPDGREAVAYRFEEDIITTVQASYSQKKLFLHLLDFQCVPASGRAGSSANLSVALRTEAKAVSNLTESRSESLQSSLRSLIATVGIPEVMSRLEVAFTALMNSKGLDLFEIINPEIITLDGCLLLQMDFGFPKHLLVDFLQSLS

Point of comparison: `COc1ccc(CCN2CCC(Nc3nc4ccccc4n3Cc3ccc(F)cc3)CC2)cc1`, inhibition 20.8%. Against it:
- Cc1cc[n+](CC(=O)CCc2ccc(C(=O)C[n+]3ccc(C)cc3)cc2)cc1 — lower, 6%
- COc1ccc(/C=N/c2ccc(C(=O)c3ccc(OC)cc3OC)cc2)cc1 — lower, 19.5%
- COc1cc(N)c(Cl)cc1C(=O)NC1CCN(CCCOc2ccc(F)cc2)CC1OC (centres undefined) — lower, 10.6%
- N=c1[nH]c(=O)n(CCCOc2cccc(Cl)c2)cc1-c1ccc(Cl)c(Cl)c1 — lower, 0%
- O=C(CCCCC(=O)Nc1c(I)cc(I)c(C(=O)O)c1I)Nc1c(I)cc(I)c(C(=O)O)c1I — lower, 15.9%
- COc1ccc(/C=N/c2ccc(C(=O)c3ccccc3)cc2)cc1 — lower, 19.9%

biological target: T2, Cholesteryl ester transfer protein (Oryctolagus cuniculus, UniProt P22687); experiment: Inhibition of CETP in rabbit serum after 1 hr by fluorescent cholesteryl esters transfer assay; conditions: not given
T2 sequence (P22687 whole entry): T1 sequence (whole entry)

`CC(C)Oc1cccc(N(Cc2cccc(OC(F)(F)C(F)F)c2)CC(O)C(F)(F)F)c1` (centres undefined) gave an IC50 of 300 nM.

same assay, conditions: read-out: IC50

Point of comparison: `OC(CN(Cc1ccc(-c2ccccc2)cc1)c1cccc(F)c1)C(F)(F)F` (centres undefined), IC50 20000 nM. Against it:
- OC(CN(Cc1cccc(OC(F)(F)C(F)F)c1)c1cccc(OCc2ccccc2)c1)C(F)(F)F (centres undefined) — 100-fold lower, 200 nM
- OC(CN(Cc1ccc(OC(F)(F)F)cc1)c1cccc(F)c1)C(F)(F)F (centres undefined) — within 1.5-fold, 15000 nM
- OC(CN(Cc1cccc(OC(F)(F)C(F)F)c1)c1cccc(Oc2ccccc2Cl)c1)C(F)(F)F (centres undefined) — 67-fold lower, 300 nM
- OC(CN(Cc1cccc(-c2ccccc2)c1)c1cccc(Oc2ccccc2)c1)C(F)(F)F (centres undefined) — 4.5-fold lower, 4420 nM
- CC(C)(O)c1cccc(CN(CC(O)C(F)(F)F)c2cccc(Oc3ccccc3)c2)c1 (centres undefined) — 2.6-fold lower, 7800 nM
- OC(CN(Cc1cccc(-c2cccnc2)c1)c1cccc(Oc2ccccc2)c1)C(F)(F)F (centres undefined) — within 1.5-fold, 14300 nM
- CC(C)c1ccc(Oc2cccc(N(Cc3cccc(OC(F)(F)C(F)F)c3)CC(O)C(F)(F)F)c2)cc1 (centres undefined) — 50-fold lower, 400 nM
- OC(CN(Cc1ccccc1)c1cccc(F)c1)C(F)(F)F (centres undefined) — higher, > 100000 nM
- OC(CN(Cc1cccc(OC(F)(F)C(F)(F)F)c1)c1cccc(Oc2ccc(S)cc2)c1)C(F)(F)F (centres undefined) — higher, > 50000 nM
- OC(CN(Cc1cccc(-c2ccncc2)c1)c1cccc(Oc2ccccc2)c1)C(F)(F)F (centres undefined) — 3.2-fold lower, 6240 nM
- CN(C)c1cccc(Oc2cccc(N(Cc3cccc(OC(F)(F)C(F)F)c3)CC(O)C(F)(F)F)c2)c1 (centres undefined) — 100-fold lower, 200 nM
- CCCC(O)CN(Cc1cccc(OC(F)(F)F)c1)c1ccccc1Oc1ccccc1 (centres undefined) — 5.6-fold lower, 3600 nM
- OC(CN(Cc1cccc(OC(F)(F)C(F)F)c1)c1cccc(Oc2cc(F)cc(F)c2)c1)C(F)(F)F (centres undefined) — 100-fold lower, 200 nM
- COC(=O)c1cccc(CN(CC(O)C(F)(F)F)c2cccc(Oc3ccccc3)c2)c1 (centres undefined) — within 1.5-fold, 16000 nM
- OC(CN(Cc1cccc(-c2cccs2)c1)c1cccc(Oc2ccccc2)c1)C(F)(F)F (centres undefined) — 18-fold lower, 1120 nM
- OC(CN(Cc1cccc(C(F)(F)F)c1)c1cccc(Cl)c1)C(F)(F)F (centres undefined) — 1.7-fold lower, 12000 nM
- OC(CN(Cc1ccc(F)c(-c2ccco2)c1)c1cccc(Oc2ccccc2)c1)C(F)(F)F (centres undefined) — 28-fold lower, 720 nM
- Cc1ccc(CN(CC(O)C(F)(F)F)c2cccc(F)c2)cc1 (centres undefined) — 3.2-fold higher, 65000 nM
- CCc1cc(Oc2cccc(N(Cc3cccc(OC(F)(F)F)c3)C[C@@H](O)C(F)(F)F)c2)ccc1Cl — 570-fold lower, 35 nM
- O=[N+]([O-])c1c(F)cccc1Oc1cccc(N(Cc2cccc(OC(F)(F)C(F)F)c2)CC(O)C(F)(F)F)c1 (centres undefined) — 200-fold lower, 100 nM
- OC(CN(Cc1cccc(OC(F)(F)C(F)F)c1)c1cccc(Oc2ccc(-c3ccccc3)cc2)c1)C(F)(F)F (centres undefined) — 8-fold lower, 2500 nM
- OC(CN(Cc1cccc(OC(F)(F)C(F)F)c1)c1cccc(Oc2cccnc2)c1)C(F)(F)F (centres undefined) — 15-fold lower, 1300 nM
- Cc1cccc(N(Cc2cccc(C(F)(F)F)c2)CC(O)C(F)(F)F)c1 (centres undefined) — 2-fold lower, 10000 nM
- CC(C)Cc1cccc(CN(CC(O)C(F)(F)F)c2cccc(Oc3ccccc3)c2)c1 (centres undefined) — 37-fold lower, 540 nM
- Cc1ccc(Oc2cccc(N(Cc3cccc(OC(F)(F)C(F)F)c3)CC(O)C(F)(F)F)c2)cc1C (centres undefined) — 250-fold lower, 80 nM
- Cc1cccnc1-c1cccc(CN(CC(O)C(F)(F)F)c2cccc(Oc3ccccc3)c2)c1 (centres undefined) — within 1.5-fold, 15000 nM
- OC(CN(Cc1cccc(C(F)(F)F)c1)c1cccc(F)c1)C(F)(F)F (centres undefined) — 2-fold higher, 40000 nM
- OC(CN(Cc1cccc(-c2ncccc2C(F)(F)F)c1)c1cccc(Oc2ccccc2)c1)C(F)(F)F (centres undefined) — 4.9-fold lower, 4080 nM
- O=[N+]([O-])c1ccccc1Oc1cccc(N(Cc2cccc(OC(F)(F)C(F)F)c2)CC(O)C(F)(F)F)c1 (centres undefined) — 50-fold lower, 400 nM
- CC(C)(C)c1cccc(Oc2cccc(N(Cc3cccc(OC(F)(F)C(F)F)c3)CC(O)C(F)(F)F)c2)c1 (centres undefined) — 250-fold lower, 80 nM
- OC(CN(Cc1cccc(OC(F)(F)C(F)F)c1)c1cccc(Oc2ccc(Cc3ccccc3)cc2)c1)C(F)(F)F (centres undefined) — 8.3-fold lower, 2400 nM
- OC(CN(Cc1cccc(Oc2ccccc2)c1)Cc1cccc(OC(F)(F)F)c1)C(F)(F)F (centres undefined) — 1.5-fold higher, 30000 nM
- OC(CN(Cc1cccc(OC(F)(F)C(F)F)c1)c1cccc(Oc2cccc(F)c2F)c1)C(F)(F)F (centres undefined) — 200-fold lower, 100 nM
- OC(CN(Cc1cccc(OC(F)(F)C(F)F)c1)c1cccc(Oc2ccc(Cl)c(Cl)c2)c1)C(F)(F)F (centres undefined) — 250-fold lower, 80 nM
- COc1cc(N(Cc2cccc(SC(F)(F)F)c2)C[C@@H](O)C(F)(F)F)cc(OC)c1OC — 4-fold lower, 5000 nM
- Cc1ccccc1CN(CC(O)C(F)(F)F)c1cccc(F)c1 (centres undefined) — higher, > 100000 nM
- OC(CN(Cc1cccc(Oc2cccc(C(F)(F)F)c2)c1)c1cccc(F)c1)C(F)(F)F (centres undefined) — 17000-fold lower, 1.2 nM
- OC(CN(Cc1cccc(OC(F)(F)F)c1)c1ccccc1Oc1ccccc1)c1ccc(C(F)(F)F)cc1 (centres undefined) — within 1.5-fold, 18000 nM
- C=CC(O)CN(Cc1cccc(OC(F)(F)F)c1)c1ccccc1Oc1ccccc1 (centres undefined) — higher, > 50000 nM
- Cc1ccc(CN(CC(O)C(F)(F)F)c2cccc(Oc3ccccc3)c2)cc1-c1ccco1 (centres undefined) — 5.1-fold lower, 3960 nM
- OC(CN(Cc1cccc(OC(F)(F)F)c1)c1ccccc1Oc1ccccc1)c1ccccc1 (centres undefined) — higher, > 50000 nM
- OC(CN(Cc1cccc(OC(F)(F)F)c1)Cc1cccc(OC(F)(F)F)c1)C(F)(F)F (centres undefined) — within 1.5-fold, 23000 nM
- OC(CN(Cc1ccccc1C(F)(F)F)c1cccc(F)c1)C(F)(F)F (centres undefined) — higher, > 100000 nM
- Cc1cccc(Oc2cccc(N(Cc3cccc(OC(F)(F)C(F)F)c3)CC(O)C(F)(F)F)c2)c1 (centres undefined) — 220-fold lower, 90 nM
- OC(Cc1ccccc1)CN(Cc1cccc(OC(F)(F)F)c1)c1ccccc1Oc1ccccc1 (centres undefined) — higher, > 50000 nM
- CCc1cc(Oc2cccc(N(Cc3ccc(C(F)(F)F)cc3F)C[C@@H](O)C(F)(F)F)c2)ccc1Cl — 500-fold lower, 40 nM
- Cc1ccccc1N(Cc1cccc(C(F)(F)F)c1)CC(O)C(F)(F)F (centres undefined) — higher, > 100000 nM
- OC(CN(Cc1cccc(OC(F)(F)C(F)F)c1)c1cccc(F)c1)C(F)(F)F (centres undefined) — 4.4-fold lower, 4500 nM
- Cc1ccc(N(Cc2cccc(C(F)(F)F)c2)CC(O)C(F)(F)F)cc1 (centres undefined) — higher, > 100000 nM
- CCc1cc(Oc2cccc(N(Cc3cccc(C(F)(F)C(F)(F)F)c3)C[C@@H](O)C(F)(F)F)c2)ccc1Cl — 440-fold lower, 45 nM
- Cc1cc(C)cc(Oc2cccc(N(Cc3cccc(OC(F)(F)C(F)F)c3)CC(O)C(F)(F)F)c2)c1 (centres undefined) — 290-fold lower, 70 nM
- OC(CN(Cc1cccc(OC(F)(F)C(F)F)c1)c1cccc(Oc2ccc(Cl)cc2)c1)C(F)(F)F (centres undefined) — 67-fold lower, 300 nM
- Cc1cc(Oc2cccc(N(Cc3cccc(OC(F)(F)C(F)F)c3)CC(O)C(F)(F)F)c2)ccc1Cl (centres undefined) — 100-fold lower, 200 nM
- OC(CN(Cc1cccc(OC(F)(F)C(F)F)c1)c1cccc(OCc2cccc(C(F)(F)F)c2)c1)C(F)(F)F (centres undefined) — 220-fold lower, 90 nM
- OC(CN(Cc1cccc(C(F)(F)F)c1)c1ccccc1)C(F)(F)F (centres undefined) — within 1.5-fold, 15000 nM
- COc1cccc(Oc2cccc(N(Cc3cccc(OCC(O)C(F)(F)F)c3)CC(O)C(F)(F)F)c2)c1 (centres undefined) — 15-fold lower, 1300 nM
- OC(CN(Cc1cccc(OC(F)(F)C(F)F)c1)c1cccc(Oc2ccc(OC(F)(F)F)cc2)c1)C(F)(F)F (centres undefined) — 50-fold lower, 400 nM
- Cc1cc(Oc2cccc(N(Cc3cccc(OC(F)(F)C(F)F)c3)CC(O)C(F)(F)F)c2)ccc1F (centres undefined) — 250-fold lower, 80 nM
- Cc1cccc(CN(CC(O)C(F)(F)F)c2cccc(F)c2)c1 (centres undefined) — higher, > 100000 nM
- OC(CN(Cc1cccc(OC(F)(F)C(F)F)c1)c1cccc(OC2CCCC2)c1)C(F)(F)F (centres undefined) — 50-fold lower, 400 nM
- OC(CN(Cc1cccc(Oc2ccccc2)c1)c1cccc(F)c1)C(F)(F)F (centres undefined) — within 1.5-fold, 15000 nM
- COc1cccc(CN(CC(O)C(F)(F)F)c2cccc(Oc3ccccc3)c2)c1 (centres undefined) — within 1.5-fold, 15000 nM
- OC(CN(Cc1cccc(OC(F)(F)C(F)F)c1)c1cccc(OC2CCCCC2)c1)C(F)(F)F (centres undefined) — 7.7-fold lower, 2600 nM
- OC(CN(Cc1ccc(OC(F)(F)F)cc1)c1cccc(Oc2ccccc2)c1)C(F)(F)F (centres undefined) — 5-fold lower, 4000 nM
- OC(CN(Cc1cccc(SC(F)(F)F)c1)c1cccc(Oc2ccccc2)c1)C(F)(F)F (centres undefined) — 51-fold lower, 390 nM
- OC(CN(Cc1cccc(C(F)(F)F)c1)c1cccc(C(F)(F)F)c1)C(F)(F)F (centres undefined) — 2-fold lower, 10000 nM
- Cc1ccc(Oc2cccc(N(Cc3cccc(OC(F)(F)C(F)F)c3)C[C@@H](O)C(F)(F)F)c2)cc1 — 2500-fold lower, 8.1 nM
- Cc1ccc(Oc2cccc(N(Cc3cccc(OC(F)(F)C(F)F)c3)CC(O)C(F)(F)F)c2)cc1 (centres undefined) — 200-fold lower, 100 nM
- OC(CN(Cc1cccc(OC(F)(F)C(F)F)c1)c1cccc(Oc2cccc(Cl)c2Cl)c1)C(F)(F)F (centres undefined) — 670-fold lower, 30 nM
- CCc1cc(Oc2cccc(N(Cc3cc(C(F)(F)F)ccc3F)C[C@@H](O)C(F)(F)F)c2)ccc1Cl — 410-fold lower, 49 nM
- OC(CN(Cc1cccc(OC(F)(F)F)c1)c1ccc(Oc2ccccc2)cc1)C(F)(F)F (centres undefined) — within 1.5-fold, 25000 nM
- OC(CN(Cc1cccc(OC(F)(F)C(F)F)c1)c1cccc(Oc2cccc(F)c2)c1)C(F)(F)F (centres undefined) — 67-fold lower, 300 nM
- OC(CN(Cc1cccc(C2CCCC2)c1)c1cccc(Oc2ccccc2)c1)C(F)(F)F (centres undefined) — 67-fold lower, 300 nM
- OC(CN(Cc1ccc2c(c1)OC(F)(F)C(F)(F)O2)c1cccc(Oc2ccccc2)c1)C(F)(F)F (centres undefined) — 1.7-fold lower, 12000 nM
- CC(C)(C)Oc1cccc(CN(CC(O)C(F)(F)F)c2cccc(Oc3ccccc3)c2)c1 (centres undefined) — 30-fold lower, 660 nM
